Assay results from patent publication US20230117034A1, “PYRAZOLOTRIAZINES” (Bayer Aktiengesellschaft, priority 2019, published 2023).

System: BRCA1 mRNA expression in CAL-120 cells
Test: qRT-PCR assay: BRCA1 mRNA expression in CAL-120
Assay type: cell-based
Conditions: Homo sapiens; Inhibition of BRCA1 mRNA expression in CAL-120 cells; median; read-out: RTqPCR-CAL-120, IC50, BRCA1 (median)
Description: 3. qRT-PCR Assay: BRCA, ATR, MCL1 in MDA-MB-231, CAL-120
Tissue cultured human MDA-MB-231 human breast cancer cells were plated in 500 microL per well at 200,000 cells/well in a 24 well microtiter plate. After 24 h, the cells were exposed continuously for 24 h to test substances (substances were added with Tecan HP 0300 Dispenser). RNA was prepared using Qiagen RNeasy MiniKit (#74106), RNA was quantified using a NanoDrop Equipment, and 600 nano gamms of RNA was coverted to cDNA using a SuperScript VILO kit (Thermofisher #11755050) followed by qPCR amplification. BRCA1 and ATR gene expression was measured by RT-qPCR and normalised to GAPDH housekeeping gene expression. qPCR primer sets have been purchased from Thermo Fisher Scientific/Applied Biosystems: BRCA1, #Hs 01556193; ATR, #Hs 00992123; GAPDH, #Hs 03929097.

SMILES	IC50 [nM]
Brc1cnn2c(NCc3nc4c([nH]3)CCCC4)nc(N3CCOCC3)nc12 [Example 21, 8-bromo-2-(morpholin-4-yl)-N-[(4,5,6,7-tetrahydro-1H-benzimidazol-2-yl)methyl]pyrazolo[1,5-a][1,3,5]triazin-4-amine]	211
Cc1ccnc2[nH]c(CNc3nc(N4CCOCC4)nc4c(Br)cnn34)nc12 [Example 20, 8-bromo-N-[(7-methyl-3H-imidazo[4,5-b]pyridin-2-yl)methyl]-2-(morpholin-4-yl)pyrazolo[1,5-a][1,3,5]triazin-4-amine]	17.7
Brc1cnn2c(NCc3nnc(-c4ccccc4)[nH]3)nc(N3CCOCC3)nc12 [Example 24, 8-bromo-2-(morpholin-4-yl)-N-[(5-phenyl-4H-1,2,4-triazol-3-yl)methyl]pyrazolo[1,5-a][1,3,5]triazin-4-amine]	34.5
